Measurements reported in US11254686B1 (Corvus Pharmaceuticals, Inc., priority 2017, dated 2022).

Experiments:
[1] = molecular target: adenosine A2B receptor (Homo sapiens (Human), UniProt P29275); assay: Adenosine receptor activity assay (Table 1), A2B activity; type: biochemical; conditions: for Ratio: A2A activity to the A2B activity, A2A/A2B; for IC50: read-out: Ave A2B cAMP IC50
[2] = molecular target: adenosine A2A receptor (Homo sapiens (Human), UniProt P29274); assay: Adenosine receptor activity assay (Table 1), A2A activity; type: biochemical; conditions: read-out: Ave A2A cAMP IC50
adenosine A2A receptor, sequence (P29274 whole entry): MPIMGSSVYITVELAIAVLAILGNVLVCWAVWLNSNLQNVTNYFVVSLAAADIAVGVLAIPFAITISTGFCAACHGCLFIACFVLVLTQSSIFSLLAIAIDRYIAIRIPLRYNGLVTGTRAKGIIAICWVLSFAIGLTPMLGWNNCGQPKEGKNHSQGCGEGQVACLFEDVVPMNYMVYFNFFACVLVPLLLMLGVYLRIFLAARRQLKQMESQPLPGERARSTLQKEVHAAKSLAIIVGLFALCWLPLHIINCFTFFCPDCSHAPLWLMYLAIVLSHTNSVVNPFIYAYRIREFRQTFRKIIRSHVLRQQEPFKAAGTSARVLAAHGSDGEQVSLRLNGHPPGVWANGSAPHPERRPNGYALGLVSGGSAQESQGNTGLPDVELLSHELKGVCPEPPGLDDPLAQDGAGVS

adenosine A2B receptor, sequence (P29275 whole entry): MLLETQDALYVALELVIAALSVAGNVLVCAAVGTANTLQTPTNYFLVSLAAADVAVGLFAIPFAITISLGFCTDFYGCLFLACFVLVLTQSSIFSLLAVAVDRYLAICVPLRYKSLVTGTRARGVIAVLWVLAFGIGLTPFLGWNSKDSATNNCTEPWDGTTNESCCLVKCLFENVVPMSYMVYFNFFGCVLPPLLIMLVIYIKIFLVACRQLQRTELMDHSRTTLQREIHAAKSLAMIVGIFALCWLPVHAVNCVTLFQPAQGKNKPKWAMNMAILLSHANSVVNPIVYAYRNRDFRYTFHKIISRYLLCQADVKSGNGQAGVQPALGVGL

Ratio [1] | IC50 [1] [nM] | IC50 [2] [nM] | Compound
3.91 | 100 to 500 | > 500 | C[C@H](Nc1nc(C(=O)NCCc2ccc(S(C)(=O)=O)cc2)c2sccc2n1)c1cncc(F)c1 [Example Z455, (S)-2-((1-(5-Fluoropyridin-3-yl)ethyl)amino)-N-(4-(methylsulfonyl)phenethyl)thieno[3,2-d]pyrimidine-4-carboxamide]
2.73 | 50 to 100 | 100 to 500 | Cc1cc2nc(N[C@@H](C)c3cccnc3)nc(C(=O)NCc3ccccn3)c2s1 [Example Z457, (S)-6-Methyl-N-(pyridin-2-ylmethyl)-2-((1-(pyridin-3-yl)ethyl)amino)thieno[3,2-d]pyrimidine-4-carboxamide]
0.84 | 100 to 500 | 100 to 500 | CCNC(=O)c1nc(NCCc2ccc(O)cc2)nc2ccsc12 [Example Z460, N-Ethyl-2-((4-hydroxyphenethyl)amino)thieno[3,2-d]pyrimidine-4-carboxamide]
0.05 | > 500 | 10 to 50 | COc1ccc([C@H](C)Nc2nc(C(=O)NCc3ccccn3)c3sccc3n2)cc1 [Example Z466, (S)-2-((1-(4-Methoxyphenyl)ethyl)amino)-N-(pyridin-2-ylmethyl)thieno[3,2-d]pyrimidine-4-carboxamide]
1.07 | 50 to 100 | 100 to 500 | COC[C@H]1CCN(C(=O)c2nc(N[C@@H](C)c3ccccn3)nc3ccsc23)C1 [Example Z470, ((S)-3-(Methoxymethyl)pyrrolidin-1-yl)(2-(((S)-1-(pyridin-2-yl)ethyl)amino)thieno[3,2-d]pyrimidin-4-yl)methanone]
7.81 | 50 to 100 | 100 to 500 | COC[C@@H]1CCN(C(=O)c2nc(N[C@@H](C)c3ccccn3)nc3ccsc23)C1 [Example Z471, ((R)-3-(Methoxymethyl)pyrrolidin-1-yl)(2-(((S)-1-(pyridin-2-yl)ethyl)amino)thieno[3,2-d]pyrimidin-4-yl)methanone]
8.61 | 10 to 50 | > 500 | C[C@H](Nc1nc(C(=O)N2CC[C@H](NC(=O)OCc3ccccc3)C2)c2sccc2n1)c1cncc(F)c1 [Example Z472, Benzyl ((S)-1-(2-(((S)-1-(5-fluoropyridin-3-yl)ethyl)amino)thieno[3,2-d]pyrimidine-4-carbonyl)pyrrolidin-3-yl)carbamate]
0.80 | 50 to 100 | 50 to 100 | COc1ccc(CNC(=O)c2nc(N[C@@H](C)c3ccccn3)nc3ccsc23)cc1 [Example Z474, (S)—N-(4-Methoxybenzyl)-2-((1-(pyridin-2-yl)ethyl)amino)thieno[3,2-d]pyrimidine-4-carboxamide]
5.32 | 100 to 500 | > 500 | C[C@H](Nc1nc(C(=O)NCCc2ccc(NC(=O)OC(C)(C)C)cc2)c2sccc2n1)c1cncc(F)c1 [Example Z482, tert-Butyl (S)-(4-(2-(2-((1-(5-fluoropyridin-3-yl)ethyl)amino)thieno[3,2-d]pyrimidine-4-carboxamido)ethyl)phenyl)carbamate]
4.16 | 10 to 50 | 100 to 500 | Cc1cc2nc(N[C@@H](C)c3cncc(F)c3)nc(C(=O)N3CC(N(C)C(=O)OC(C)(C)C)C3)c2s1 [Example Z484, tert-Butyl (S)-(1-(2-((1-(5-fluoropyridin-3-yl)ethyl)amino)-6-methylthieno[3,2-d]pyrimidine-4-carbonyl)azetidin-3-yl)(methyl)carbamate]
10.58 | 50 to 100 | > 500 | COC1(C)CN(C(=O)c2nc(N[C@@H](C)c3ccccn3)nc3ccsc23)C1 [Example Z486, (S)-(3-Methoxy-3-methylazetidin-1-yl)(2-((1-(pyridin-2-yl)ethyl)amino)thieno[3,2-d]pyrimidin-4-yl)methanone]
6.54 | 100 to 500 | > 500 | Cc1cc2nc(N[C@@H](C)c3cncc(F)c3)nc(C(=O)NCCC3CCN(C(=O)OC(C)(C)C)CC3)c2s1 [Example Z487, tert-Butyl (S)-4-(2-(2-((1-(5-fluoropyridin-3-yl)ethyl)amino)-6-methylthieno[3,2-d]pyrimidine-4-carboxamido)ethyl)piperidine-1-carboxylate]
17.90 | 50 to 100 | > 500 | C[C@H](Nc1nc(C(=O)NCCc2ccc(N)cc2)c2sccc2n1)c1cncc(F)c1 [Example Z493, (S)—N-(4-Aminophenethyl)-2-((1-(5-fluoropyridin-3-yl)ethyl)amino)thieno[3,2-d]pyrimidine-4-carboxamide]
5.78 | 100 to 500 | > 500 | Cc1cc2nc(N[C@@H](C)c3cccnc3)nc(C(=O)N3CC(CNC(=O)OC(C)(C)C)C3)c2s1 [Example Z498, tert-Butyl (S)-((1-(6-methyl-2-((1-(pyridin-3-yl)ethyl)amino)thieno[3,2-d]pyrimidine-4-carbonyl)azetidin-3-yl)methyl)carbamate]
13.99 | > 500 | > 500 | Cc1cc2nc(N[C@@H](C)c3cccnc3)nc(C(=O)N3CC(CN)C3)c2s1 [Example Z499, (S)-(3-(Aminomethyl)azetidin-1-yl)(6-methyl-2-((1-(pyridin-3-yl)ethyl)amino)thieno[3,2-d]pyrimidin-4-yl)methanone]
12.75 | > 500 | > 500 | Cc1cc2nc(N[C@@H](C)c3cccnc3)nc(C(=O)NCC[C@@H]3CCNC3)c2s1 [Example Z500, 6-Methyl-2-(((S)-1-(pyridin-3-yl)ethyl)amino)-N-(2-((S)-pyrrolidin-3-yl)ethyl)thieno[3,2-d]pyrimidine-4-carboxamide]
8.68 | > 500 | > 500 | Cc1cc2nc(N[C@@H](C)c3cccnc3)nc(C(=O)NCC[C@H]3CCNC3)c2s1 [Example Z501, 6-Methyl-2-(((S)-1-(pyridin-3-yl)ethyl)amino)-N-(2-((R)-pyrrolidin-3-yl)ethyl)thieno[3,2-d]pyrimidine-4-carboxamide]
4.89 | 10 to 50 | 50 to 100 | Cc1cc2nc(N[C@@H](C)c3cncc(F)c3)nc(C(=O)N3CC(CN(C)C)C3)c2s1 [Example Z502, (S)-(3-((Dimethylamino)methyl)azetidin-1-yl)(2-((1-(5-fluoropyridin-3-yl)ethyl)amino)-6-methylthieno[3,2-d]pyrimidin-4-yl)methanone]
18.01 | 10 to 50 | > 500 | Cc1cc2nc(N[C@@H](C)c3cccnc3)nc(C(=O)N[C@H]3C[C@@H](O)C3)c2s1 [Example Z503, N-((1s,3R)-3-hydroxycyclobutyl)-6-methyl-2-(((S)-1-(pyridin-3-yl)ethyl)amino)thieno[3,2-d]pyrimidine-4-carboxamide]
– | 100 to 500 | 100 to 500 | Cc1cc2nc(N[C@@H](C)c3cccnc3)nc(C(=O)N3CC(CNC(=O)C(C)(C)C)C3)c2s1 [Example Z505, (S)—N-((1-(6-Methyl-2-((1-(pyridin-3-yl)ethyl)amino)thieno[3,2-d]pyrimidine-4-carbonyl)azetidin-3-yl)methyl)pivalamide]
5.47 | < 10 | 10 to 50 | COCC1CN(C(=O)c2nc(N[C@@H](C)c3ccccn3)nc3cc(C)sc23)C1 [Example Z514, (S)-(3-(Methoxymethyl)azetidin-1-yl)(6-methyl-2-((1-(pyridin-2-yl)ethyl)amino)thieno[3,2-d]pyrimidin-4-yl)methanone]
8.08 | > 500 | > 500 | Cc1cc2nc(N[C@@H](C)c3cccnc3)nc(C(=O)N3CC(CN(C)C)C3)c2s1 [Example Z516, (S)-(3-((Dimethylamino)methyl)azetidin-1-yl)(6-methyl-2-((1-(pyridin-3-yl)ethyl)amino)thieno[3,2-d]pyrimidin-4-yl)methanone]
0.06 | > 500 | > 500 | Cc1cc2nc(N[C@@H](C)c3cncc(F)c3)nc(C(=O)NCCC3CN(C(=O)C(F)(F)F)C3)c2s1 [Example Z521, (S)-2-((1-(5-Fluoropyridin-3-yl)ethyl)amino)-6-methyl-N-(2-(1-(2,2,2-trifluoroacetyl)azetidin-3-yl)ethyl)thieno[3,2-d]pyrimidine-4-carboxamide]
3.05 | 50 to 100 | 100 to 500 | C[C@H](Nc1nc(C(=O)N2CC(CN(C)C(=O)OC(C)(C)C)C2)c2sccc2n1)c1cncc(F)c1 [Example Z525, tert-Butyl (S)-((1-(2-((1-(5-Fluoropyridin-3-yl)ethyl)amino)thieno[3,2-d]pyrimidine-4-carbonyl)azetidin-3-yl)methyl)(methyl)carbamate]
7.31 | 50 to 100 | > 500 | Cc1cc2nc(N[C@@H](C)c3ccccn3)nc(C(=O)N3CC(CNC(=O)C(C)(C)C)C3)c2s1 [Example Z527, (S)—N-((1-(6-Methyl-2-((1-(pyridin-2-yl)ethyl)amino)thieno[3,2-d]pyrimidine-4-carbonyl)azetidin-3-yl)methyl)pivalamide]
– | 100 to 500 | 100 to 500 | CC(=O)NC1CN(C(=O)c2nc(N[C@@H](C)c3ccccn3)nc3ccsc23)C1 [Example Z533, (S)—N-(1-(2-((1-(pyridin-2-yl)ethyl)amino)thieno[3,2-d]pyrimidine-4-carbonyl)azetidin-3-yl)acetamide]
57.93 | 50 to 100 | > 500 | Cc1cc2nc(N[C@@H](C)c3cncc(F)c3)nc(C(=O)NCC3CCNCC3)c2s1 [Example Z534, (S)-2-((1-(5-Fluoropyridin-3-yl)ethyl)amino)-6-methyl-N-(piperidin-4-ylmethyl)thieno[3,2-d]pyrimidine-4-carboxamide]
10.26 | > 500 | > 500 | C[C@H](Nc1nc(C(=O)NCCN)c2sccc2n1)c1cncc(F)c1 [Example Z536, (S)—N-(2-Aminoethyl)-2-((1-(5-fluoropyridin-3-yl)ethyl)amino)thieno[3,2-d]pyrimidine-4-carboxamide]
